Measurements taken from ChEMBL document CHEMBL1201862, “PubChem BioAssay data set” (2004).
Active and inactive are the calls of the source.

Tests used:
[1] = target: Disintegrin and metalloproteinase domain-containing protein 17 (Homo sapiens, UniProt P78536); assay: exosite inhibitors of ADAM17, dose response, biochemical (AID 743260)
[2] = ADAM10 protease inhibitors, dose response, selectivity assay for ADAM17 exosite inhibitor project, biochemical, FRET peptide substrate, recombinant human ADAM10 (AID 743259);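 further: ADAM10 enzyme cleaving a FRET peptide substrate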
[3] = target: T1, Replicative DNA helicase DnaB (Mycobacterium tuberculosis, UniProt P9WMR3); assay: DnaB intein splicing inhibitors, dose response, biochemical, cell-free fluorescence (AID 449749); format: functional
T1 sequence (P9WMR3 whole entry): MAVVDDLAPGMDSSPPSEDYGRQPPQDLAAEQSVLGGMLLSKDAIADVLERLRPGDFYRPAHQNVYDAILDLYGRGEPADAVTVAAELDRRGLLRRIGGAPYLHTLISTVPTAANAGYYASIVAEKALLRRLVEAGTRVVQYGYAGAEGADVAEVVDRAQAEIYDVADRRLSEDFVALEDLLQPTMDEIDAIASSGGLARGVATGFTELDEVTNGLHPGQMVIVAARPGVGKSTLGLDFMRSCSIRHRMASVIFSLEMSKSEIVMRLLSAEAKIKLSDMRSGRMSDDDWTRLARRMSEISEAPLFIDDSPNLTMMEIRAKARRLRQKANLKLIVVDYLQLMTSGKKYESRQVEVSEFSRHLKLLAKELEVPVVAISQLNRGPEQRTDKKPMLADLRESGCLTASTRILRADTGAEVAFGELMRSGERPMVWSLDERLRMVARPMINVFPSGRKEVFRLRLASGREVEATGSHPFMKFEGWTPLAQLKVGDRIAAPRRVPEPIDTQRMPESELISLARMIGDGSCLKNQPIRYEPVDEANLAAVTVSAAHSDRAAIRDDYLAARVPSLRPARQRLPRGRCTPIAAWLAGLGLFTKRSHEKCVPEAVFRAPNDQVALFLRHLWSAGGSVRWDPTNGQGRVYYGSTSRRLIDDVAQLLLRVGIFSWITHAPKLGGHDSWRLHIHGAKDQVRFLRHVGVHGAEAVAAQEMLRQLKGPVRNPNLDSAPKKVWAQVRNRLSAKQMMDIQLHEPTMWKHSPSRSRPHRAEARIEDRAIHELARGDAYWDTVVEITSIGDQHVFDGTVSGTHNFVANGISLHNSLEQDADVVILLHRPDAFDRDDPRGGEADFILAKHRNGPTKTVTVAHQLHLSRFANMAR

[4] = target: T2, Tyrosyl-DNA phosphodiesterase 2 (Homo sapiens, UniProt O95551); assay: human TDP2 enzyme inhibitors, dose response, biochemical, epi absorbance, IC50 (AID 743297)
T2 sequence (O95551 whole entry): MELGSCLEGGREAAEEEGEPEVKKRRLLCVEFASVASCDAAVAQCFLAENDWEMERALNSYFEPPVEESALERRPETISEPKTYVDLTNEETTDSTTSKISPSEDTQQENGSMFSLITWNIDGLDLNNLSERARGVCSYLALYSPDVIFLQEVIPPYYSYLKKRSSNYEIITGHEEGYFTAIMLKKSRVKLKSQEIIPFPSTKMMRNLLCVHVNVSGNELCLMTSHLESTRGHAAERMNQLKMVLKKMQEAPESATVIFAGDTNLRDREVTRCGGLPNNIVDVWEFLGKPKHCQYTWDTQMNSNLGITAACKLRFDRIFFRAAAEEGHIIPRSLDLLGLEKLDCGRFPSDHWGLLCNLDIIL

[5] = target: T3, Sentrin-specific protease 8 (Homo sapiens, UniProt Q96LD8); format: functional
T3 sequence (Q96LD8 whole entry): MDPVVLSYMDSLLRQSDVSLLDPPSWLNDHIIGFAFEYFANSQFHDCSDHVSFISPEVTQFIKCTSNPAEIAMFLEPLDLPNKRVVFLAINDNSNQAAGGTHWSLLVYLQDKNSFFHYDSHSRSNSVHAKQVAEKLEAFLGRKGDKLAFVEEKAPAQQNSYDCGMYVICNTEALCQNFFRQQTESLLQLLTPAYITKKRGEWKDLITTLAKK

[6] = target: T3, Sentrin-specific protease 8; format: functional; remark: listed apart in the source
[7] = microbe, parasite or virus in culture; format: functional; settings: Mycobacterium tuberculosis
[8] = target: T4, Heat shock factor protein 1 (Mus musculus, UniProt P38532); assay: HSF1 potentiators in luciferase reporter cells, confirmation, cell-based, NIH3T3, luminescence, dose retest (AID 435004); format: functional;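 further: stress induced by proteasome inhibitor MG132 added 30 min after compound; luciferase reporter driven by HSF1 response element in NIH3T3 cells; actives raise luminescence as potentiators of the MG132 stress response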
T4 sequence (P38532 whole entry): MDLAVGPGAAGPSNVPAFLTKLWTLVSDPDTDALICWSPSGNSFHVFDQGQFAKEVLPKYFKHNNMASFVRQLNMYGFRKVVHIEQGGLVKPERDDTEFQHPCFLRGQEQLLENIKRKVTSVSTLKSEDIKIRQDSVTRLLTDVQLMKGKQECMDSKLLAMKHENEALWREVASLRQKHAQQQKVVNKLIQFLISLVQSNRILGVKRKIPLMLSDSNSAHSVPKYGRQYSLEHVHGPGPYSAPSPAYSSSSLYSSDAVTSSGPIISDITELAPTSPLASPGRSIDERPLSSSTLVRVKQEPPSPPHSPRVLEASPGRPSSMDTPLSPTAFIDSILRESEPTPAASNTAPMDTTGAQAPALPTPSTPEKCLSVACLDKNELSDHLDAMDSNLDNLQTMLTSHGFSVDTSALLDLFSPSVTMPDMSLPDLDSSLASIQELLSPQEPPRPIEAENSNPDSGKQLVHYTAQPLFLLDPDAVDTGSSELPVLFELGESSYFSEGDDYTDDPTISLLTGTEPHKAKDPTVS

[9] = target: T5, Sentrin-specific protease 6 (Homo sapiens, UniProt Q9GZR1); format: functional;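 further: Luminescence-based dose-response confirmatory assay of SENP6 inhibition, following up an ultra-high-throughput screen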
T5 sequence (Q9GZR1 whole entry): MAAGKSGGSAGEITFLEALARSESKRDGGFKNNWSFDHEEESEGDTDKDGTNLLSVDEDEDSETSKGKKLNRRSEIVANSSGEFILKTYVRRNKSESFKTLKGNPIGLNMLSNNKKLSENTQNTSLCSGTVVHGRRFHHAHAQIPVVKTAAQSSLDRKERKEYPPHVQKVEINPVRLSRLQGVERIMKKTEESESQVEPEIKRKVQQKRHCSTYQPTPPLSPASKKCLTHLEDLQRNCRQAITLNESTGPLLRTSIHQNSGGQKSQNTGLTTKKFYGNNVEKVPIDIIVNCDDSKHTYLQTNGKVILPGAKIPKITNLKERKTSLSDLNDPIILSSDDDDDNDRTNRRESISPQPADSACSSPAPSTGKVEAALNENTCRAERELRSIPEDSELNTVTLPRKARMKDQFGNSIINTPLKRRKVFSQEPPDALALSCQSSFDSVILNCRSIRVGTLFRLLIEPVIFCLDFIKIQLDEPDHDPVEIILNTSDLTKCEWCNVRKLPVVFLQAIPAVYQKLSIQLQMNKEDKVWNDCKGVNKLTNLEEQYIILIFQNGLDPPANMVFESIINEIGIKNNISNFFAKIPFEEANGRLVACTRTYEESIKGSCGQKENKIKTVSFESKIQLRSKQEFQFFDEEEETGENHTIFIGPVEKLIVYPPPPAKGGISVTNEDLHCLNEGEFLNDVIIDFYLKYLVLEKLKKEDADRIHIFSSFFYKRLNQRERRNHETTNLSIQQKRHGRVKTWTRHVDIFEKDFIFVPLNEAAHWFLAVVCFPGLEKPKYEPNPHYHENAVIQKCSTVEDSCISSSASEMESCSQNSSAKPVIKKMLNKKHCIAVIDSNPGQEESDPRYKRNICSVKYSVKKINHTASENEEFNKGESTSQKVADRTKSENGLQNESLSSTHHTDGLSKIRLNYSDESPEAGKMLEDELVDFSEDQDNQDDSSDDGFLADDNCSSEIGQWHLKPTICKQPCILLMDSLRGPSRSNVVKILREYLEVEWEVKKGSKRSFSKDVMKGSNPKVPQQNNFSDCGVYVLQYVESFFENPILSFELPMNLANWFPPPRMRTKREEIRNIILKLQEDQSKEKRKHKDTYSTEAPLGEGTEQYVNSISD

INS1 = assay: beta cell apoptosis inhibitors, cytokine rescue, dose response, luminescence, retest (AID 449756); format: functional, cell-based; settings: Rattus norvegicus;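 further: cell death triggered by IL-1 beta plus TNF-alpha plus IFN-gamma mixture; protective hits raise ATP signal compared with cytokine alone wells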
Caspase-3 = target: T6, Caspase-3 (Homo sapiens, UniProt P42574); format: functional;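 further: Dose-response selectivity test against caspase-3 for candidate inhibitors of sentrin-specific proteases (SENPs)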
T6 sequence (P42574 whole entry): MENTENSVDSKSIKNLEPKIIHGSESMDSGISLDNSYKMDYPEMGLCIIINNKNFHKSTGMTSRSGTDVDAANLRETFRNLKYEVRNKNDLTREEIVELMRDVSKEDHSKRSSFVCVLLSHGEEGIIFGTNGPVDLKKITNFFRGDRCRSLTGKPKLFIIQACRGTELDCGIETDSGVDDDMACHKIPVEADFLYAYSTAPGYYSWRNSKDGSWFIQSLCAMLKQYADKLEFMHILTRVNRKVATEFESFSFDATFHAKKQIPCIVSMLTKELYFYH

[10] = target: T3, Sentrin-specific protease 8; format: functional; remark: listed apart in the source
[11] = target: T7, Sentrin-specific protease 7 (Homo sapiens, UniProt Q9BQF6); format: functional;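 further: Luminescence-based dose-response confirmation of ultra-high-throughput screening hits, measuring inhibition of SENP7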
T7 sequence (Q9BQF6 whole entry): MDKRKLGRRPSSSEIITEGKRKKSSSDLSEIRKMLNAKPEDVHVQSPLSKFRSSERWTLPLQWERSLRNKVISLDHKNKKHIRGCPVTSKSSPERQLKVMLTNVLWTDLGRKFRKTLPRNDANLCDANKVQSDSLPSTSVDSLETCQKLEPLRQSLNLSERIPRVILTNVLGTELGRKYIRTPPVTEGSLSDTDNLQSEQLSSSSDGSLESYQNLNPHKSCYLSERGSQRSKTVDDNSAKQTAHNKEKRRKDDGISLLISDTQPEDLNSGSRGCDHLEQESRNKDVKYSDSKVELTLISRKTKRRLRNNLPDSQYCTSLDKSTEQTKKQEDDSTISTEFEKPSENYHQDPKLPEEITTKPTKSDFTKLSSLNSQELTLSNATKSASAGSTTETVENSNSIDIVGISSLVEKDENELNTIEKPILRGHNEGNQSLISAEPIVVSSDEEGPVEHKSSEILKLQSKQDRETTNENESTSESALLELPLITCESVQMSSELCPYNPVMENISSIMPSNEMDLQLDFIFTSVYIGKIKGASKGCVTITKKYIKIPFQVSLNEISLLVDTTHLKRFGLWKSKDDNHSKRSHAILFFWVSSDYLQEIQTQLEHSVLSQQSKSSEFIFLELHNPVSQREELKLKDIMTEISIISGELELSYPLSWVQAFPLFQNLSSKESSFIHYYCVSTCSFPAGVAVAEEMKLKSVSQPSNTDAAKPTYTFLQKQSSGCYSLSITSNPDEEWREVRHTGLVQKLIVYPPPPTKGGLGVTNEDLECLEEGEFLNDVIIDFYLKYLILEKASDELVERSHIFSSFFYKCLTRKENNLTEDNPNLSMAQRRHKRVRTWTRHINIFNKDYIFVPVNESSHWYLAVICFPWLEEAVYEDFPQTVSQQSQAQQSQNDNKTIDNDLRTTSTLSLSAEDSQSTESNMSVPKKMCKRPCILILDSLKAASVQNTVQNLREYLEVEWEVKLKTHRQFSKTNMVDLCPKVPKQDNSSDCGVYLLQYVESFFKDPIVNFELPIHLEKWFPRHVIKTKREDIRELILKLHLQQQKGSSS

[12] = inhibitors of clade B AD8 Env fusion, dose response, cell-based, cherry-pick (AID 652062); format: functional;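 further: luciferase signal from cell-cell fusion driven by HIV-1 clade B AD8 Env; potency is for inhibitors of fusion seen as a drop in luminescence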
[13] = HEp-2 cell cytotoxicity, dose response, cytotoxicity control for RSV inhibitor project, HTS (AID 2410); format: functional; settings: human respiratory syncytial virus
[14] = inhibitors of HIV Env-driven cell fusion, dose response, cherry-pick (AID 652057); format: functional, cell-based
[15] = CEM21 lymphoblast cell cytotoxicity, dose response, cytotoxicity control for viral fusion inhibitor project, CellTiter-Glo luminescence, cherry-picked (AID 652042); format: functional, cell-based;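 further: potency for signal decrease meaning cytotoxicity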
[16] = off-target signal loss in HeLa-CEM21 co-culture – HeLa F-luc CTL cells, cherry-picked, counter-screen for HIV-1 Env fusion inhibitor project, dose response (AID 652040); format: functional, cell-based;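 further: potency for signal decrease marking cytotoxic or nonspecific inhibition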
[17] = ZM109 Env clade C HIV-1 fusion inhibitors, dose response, HeLa effector, CEM target cells, luciferase, cherry-pick (AID 652058); format: functional, cell-based
[18] = target: Endoplasmic reticulum aminopeptidase 1 (Homo sapiens, UniProt Q9NZ08); assay: ERAP1 aminopeptidase inhibitors, dose response, biochemical, cherry-pick, set 2, plate reader (AID 743314)
Sequence of Endoplasmic reticulum aminopeptidase 1 (Q9NZ08 whole entry): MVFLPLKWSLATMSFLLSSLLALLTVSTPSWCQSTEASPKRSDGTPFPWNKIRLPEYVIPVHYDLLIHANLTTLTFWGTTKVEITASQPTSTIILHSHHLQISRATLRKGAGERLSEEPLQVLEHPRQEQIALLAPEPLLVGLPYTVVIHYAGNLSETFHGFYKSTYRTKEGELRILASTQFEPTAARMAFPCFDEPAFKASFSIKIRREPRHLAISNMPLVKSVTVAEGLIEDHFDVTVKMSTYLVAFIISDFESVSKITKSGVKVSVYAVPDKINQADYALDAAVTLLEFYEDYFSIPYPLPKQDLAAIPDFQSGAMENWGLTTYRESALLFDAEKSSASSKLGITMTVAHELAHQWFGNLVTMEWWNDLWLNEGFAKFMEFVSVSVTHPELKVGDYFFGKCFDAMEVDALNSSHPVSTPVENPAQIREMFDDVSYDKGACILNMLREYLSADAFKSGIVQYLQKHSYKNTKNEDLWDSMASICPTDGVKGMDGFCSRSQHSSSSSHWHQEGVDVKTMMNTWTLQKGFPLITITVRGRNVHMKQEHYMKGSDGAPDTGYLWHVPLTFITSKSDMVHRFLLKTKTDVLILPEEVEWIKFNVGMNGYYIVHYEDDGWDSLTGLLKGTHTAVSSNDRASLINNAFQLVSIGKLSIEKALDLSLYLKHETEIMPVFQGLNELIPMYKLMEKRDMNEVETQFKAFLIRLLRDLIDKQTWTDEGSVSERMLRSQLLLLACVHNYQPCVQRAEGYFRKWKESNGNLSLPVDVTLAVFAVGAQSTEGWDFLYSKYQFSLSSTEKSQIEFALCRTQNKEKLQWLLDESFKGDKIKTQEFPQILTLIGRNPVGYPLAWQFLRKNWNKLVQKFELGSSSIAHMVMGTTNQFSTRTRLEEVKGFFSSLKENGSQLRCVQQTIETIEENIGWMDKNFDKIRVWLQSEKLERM

Sequence of Disintegrin and metalloproteinase domain-containing protein 17 (P78536 whole entry, the tested form may be a part): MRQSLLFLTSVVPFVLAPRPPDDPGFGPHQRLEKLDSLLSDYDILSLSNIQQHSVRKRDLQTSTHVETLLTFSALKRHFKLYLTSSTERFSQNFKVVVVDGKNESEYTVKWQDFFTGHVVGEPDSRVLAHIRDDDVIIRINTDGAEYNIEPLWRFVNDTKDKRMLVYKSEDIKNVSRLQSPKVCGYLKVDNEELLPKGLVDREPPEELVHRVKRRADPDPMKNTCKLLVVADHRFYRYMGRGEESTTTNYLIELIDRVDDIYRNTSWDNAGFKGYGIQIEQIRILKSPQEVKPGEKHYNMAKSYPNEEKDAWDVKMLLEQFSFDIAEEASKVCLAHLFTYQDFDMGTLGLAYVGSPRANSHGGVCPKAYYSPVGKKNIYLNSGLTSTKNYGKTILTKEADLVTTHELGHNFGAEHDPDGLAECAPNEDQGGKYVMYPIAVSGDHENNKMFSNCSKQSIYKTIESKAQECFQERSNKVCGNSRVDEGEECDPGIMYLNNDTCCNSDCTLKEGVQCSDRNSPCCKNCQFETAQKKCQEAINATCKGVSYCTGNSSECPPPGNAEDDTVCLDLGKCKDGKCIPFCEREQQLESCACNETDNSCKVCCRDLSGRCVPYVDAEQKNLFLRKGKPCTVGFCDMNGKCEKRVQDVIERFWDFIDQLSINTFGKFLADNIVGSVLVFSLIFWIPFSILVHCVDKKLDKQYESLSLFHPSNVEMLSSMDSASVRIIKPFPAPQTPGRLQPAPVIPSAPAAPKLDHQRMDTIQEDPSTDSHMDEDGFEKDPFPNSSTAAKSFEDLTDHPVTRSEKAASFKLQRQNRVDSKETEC

For `Clc1ccc(OCCOCCOc2cccc3cccnc23)c(Br)c1`, the IC50 [1] was > 69.5 µM (inactive) and the IC50 [2] was > 69.5 µM (inactive).

With `Nc1ccc(N2CCOCC2)c2nonc12` the AC50 [3] was 18.8 µM (active), the IC50 [4] was > 128 µM (inactive) and the IC50 [5] was 3.67 µM (active). The IC50 [6] was 2.98 µM (active).

In the case of `S=C(Nc1ccc(Cl)cc1)Nc1cccc2cnccc12`, the IC50 [4] is reported as 130 µM (inactive), the CC50 [7] is reported as > 40 µM (active) and the EC50 [8] is reported as > 260 µM (inactive). The IC50 [9] was 2.87 µM (active), the AC50 (INS1) was > 260 µM (inactive) and the IC50 (Caspase-3) was 11.7 µM (active). For the same molecule, the IC50 [10] was 5.49 µM (active) and the IC50 [11] was 6.24 µM (active).

In the case of `Cc1n[nH]c2c1C1(C(=O)N(Cc3ccc(Cl)cc3)c3ccccc31)C(C#N)=C(N)O2` (stereo unspecified), the AC50 [12] is reported as 39.6 µM (active), the CC50 [13] is reported as 25.1 µM (active) and the AC50 [14] is reported as 3.62 µM (active). For the same molecule, the AC50 [15] was 59.1 µM (active) and the AC50 [16] was 55.2 µM (active).

With `CCCCCCCCN1C(=O)[C@H](CC(=O)N2CCCCC2)C[C@@]2(C(=O)OCC)CCCC=C12` the AC50 [12] was 0.465 µM (active), the AC50 [14] was 8.73 µM (active) and the AC50 [17] was 13.9 µM (active). For the same molecule, the AC50 [15] was 37.2 µM (active) and the AC50 [16] was > 70 µM (inactive).

In the case of `CN(C)c1ccc2c(c1)[C@@H]1C[C@H](CC(=O)NCc3ccc(-c4ccccc4)cc3)O[C@@H](CO)[C@@H]1O2`, the AC50 [12] is reported as 2.51 µM (active), the AC50 [14] is reported as < 0.26 µM (active) and the AC50 [15] is reported as 40.9 µM (active).

With `CN1[C@@H]2Cn3c(ccc(/C=C/c4ccccc4)c3=O)[C@H]1[C@@H](C(=O)NC1CCCC1)[C@@H]2CO` the AC50 [18] was 9.03 µM (active).

For `CC(=O)N1[C@@H]2c3ccc(/C=C/c4ccccc4)c(=O)n3C[C@H]1[C@H](CO)[C@H]2C(=O)N(C)C`, the AC50 [18] was 4.5 µM (active).

With `COc1ccc(NC(C)C(=O)N/N=C/c2ccccc2OCc2ccc(Br)cc2)cc1` (stereo unspecified) the IC50 [1] was > 69.5 µM (inactive) and the IC50 [2] was > 69.5 µM (inactive).
